# From US12655124B2, “Heterocyclic compounds as modulators of stimulator of interferon genes (STING)” (RYVU THERAPEUTICS S.A., priority 2019, dated 2026)
# Target: human STING (Homo sapiens, UniProt Q86WV6)
# Experiment: Fluorescence Thermal Shift assay (hSTING FTS binding assay);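 further: STING preincubated with compound for 20 min in HEPES NaCl buffer pH 7.5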
# Conditions: ΔTm, STING 0.1 mg/mL, SyproOrange, 25 to 99° C.
# Description: Fluorescence Thermal Shift Assay Compounds of the present invention were tested for binding to human STING in Fluorescence Thermal Shift assay. […] Final STING concentration was 0.1 mg/mL. Thermal unfolding was performed in Real-Time PCR QuantStudio 6 Flex System (Applied Biosystems), from 25 to 99° C., with continuous ramp mode and ramp rate 0.033° C./s. The data were analyzed using Protein Thermal Shift Software (ThermoFisher).
# Chain of human STING (Q86WV6 whole entry H232R): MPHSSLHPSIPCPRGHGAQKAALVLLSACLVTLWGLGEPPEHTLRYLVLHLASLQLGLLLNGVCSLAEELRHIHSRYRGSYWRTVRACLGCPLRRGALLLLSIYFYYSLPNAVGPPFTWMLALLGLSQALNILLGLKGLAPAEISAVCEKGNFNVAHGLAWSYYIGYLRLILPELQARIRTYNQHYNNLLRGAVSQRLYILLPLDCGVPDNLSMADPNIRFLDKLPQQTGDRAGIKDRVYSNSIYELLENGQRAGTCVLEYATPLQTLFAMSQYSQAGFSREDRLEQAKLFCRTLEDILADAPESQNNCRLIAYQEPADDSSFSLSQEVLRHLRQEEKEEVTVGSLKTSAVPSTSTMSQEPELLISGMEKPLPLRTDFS
row,SMILES,hSTING FTS binding assay (ΔT ° C.)
1,"Cc1ccc(N2CCC[C@H](N(Cc3ccnc(C)c3)Cc3cn(C4CC4)c4cc(N5CCC(N)C(F)(F)C5)c(F)cc4c3=O)C2)cn1 (stereo partly drawn) [Example 26, 7-(4-amino-3,3-difluoropiperidin-1-yl)-1-cyclopropyl-6-fluoro-3-({[(3S)-1-(6-methylpyridin-3-yl)piperidin-3-yl][(2-methylpyridin-4-yl)methyl]amino}methyl)-1,4-dihydroquinolin-4-one]",+++ (ΔTm≥20° C.)
2,"Cc1ccc(N2CCC[C@H](N(Cc3ccnc(C)c3)Cc3cn(C4CC4)c4cc(N5CC(CO)C5)c(F)cc4c3=O)C2)cn1 [Example 27, 1-cyclopropyl-6-fluoro-7-[3-(hydroxymethyl)azetidin-1-yl]-3-({[(3S)-1-(6-methylpyridin-3-yl)piperidin-3-yl][(2-methylpyridin-4-yl)methyl]amino}methyl)-1,4-dihydroquinolin-4-one]",+++ (ΔTm≥20° C.)
3,"Cc1cc(CN(Cc2cn(C)c3cc(Br)ccc3c2=O)[C@H]2CCCN(c3ccc(N)nc3)C2)ccn1.Cl [Example 29, 3-({[(3S)-1-(6-aminopyridin-3-yl)piperidin-3-yl][(2-methylpyridin-4-yl)methyl]amino}methyl)-7-bromo-1-methyl-1,4-dihydroquinolin-4-one Hydrochloride]",+++ (ΔTm≥20° C.)
4,"Cc1ccc(N2CCC[C@H](N(Cc3ccnc(C)c3)Cc3cn(C4CC4)c4cc(N5CCC(F)(CN)C5)c(F)cc4c3=O)C2)cn1 (stereo partly drawn) [Example 30, 7-[3-(aminomethyl)-3-fluoropyrrolidin-1-yl]-1-cyclopropyl-6-fluoro-3-({[(3S)-1-(6-methylpyridin-3-yl)piperidin-3-yl][(2-methylpyridin-4-yl)methyl]amino}methyl)-1,4-dihydroquinolin-4-one]",+++ (ΔTm≥20° C.)
5,"CNC1CCN(c2cc3c(cc2F)c(=O)c(CN(Cc2ccnc(C)c2)[C@H]2CCCN(c4ccc(C)nc4)C2)cn3C2CC2)C1 (stereo partly drawn) [Example 33, 1-cyclopropyl-6-fluoro-7-[3-(methylamino)pyrrolidin-1-yl]-3-({[(3S)-1-(6-methylpyridin-3-yl)piperidin-3-yl][(2-methylpyridin-4-yl)methyl]amino}methyl)-1,4-dihydroquinolin-4-one]",+++ (ΔTm≥20° C.)
6,"Cc1cc(CN(Cc2cn(C(C)C)c3ccccc3c2=O)[C@H]2CCCN(c3ccc(N)nc3)C2)ccn1.Cl [Example 34, 3-({[(3S)-1-(6-aminopyridin-3-yl)piperidin-3-yl][(2-methylpyridin-4-yl)methyl]amino}methyl)-1-(propan-2-yl)-1,4-dihydroquinolin-4-one Hydrochloride]",+++ (ΔTm≥20° C.)
7,"Cc1ccc(N2CCC[C@H](N(Cc3ccnc(C)c3)Cc3cn(C4CC4)c4nc(N5CC[C@@H](O)C5)c(F)cc4c3=O)C2)cn1.Cl [Example 37, 1-cyclopropyl-6-fluoro-7-[(3R)-3-hydroxypyrrolidin-1-yl]-3-({[(3S)-1-(6-methylpyridin-3-yl)piperidin-3-yl][(2-methylpyridin-4-yl)methyl]amino}methyl)-1,4-dihydro-1,8-naphthyridin-4-one Hydrochloride]",+++ (ΔTm≥20° C.)
8,"CN[C@H]1CCN(c2cc3c(cc2F)c(=O)c(CN(Cc2ccnc(C)c2)[C@H]2CCCN(c4ccc(C)nc4)C2)cn3C2CC2)C1.Cl [Example 58, 1-Cyclopropyl-6-fluoro-7-[(3S)-3-(methylamino)pyrrolidin-1-yl]-3-({[(3S)-1-(6-methylpyridin-3-yl)piperidin-3-yl][(2-methylpyridin-4-yl)methyl]amino}methyl)-1,4-dihydroquinolin-4-one Hydrochloride]",+++ (ΔTm≥20° C.)
9,"Cc1ccc(N2CCC[C@H](N(Cc3ccnc(C)c3)Cc3cn(C4CC4)c4cc(N5CCC(C(=O)O)CC5)c(F)cc4c3=O)C2)cn1 [Example 67, 1-[1-cyclopropyl-6-fluoro-3-({[(3S)-1-(6-methylpyridin-3-yl)piperidin-3-yl][(2-methylpyridin-4-yl)methyl]amino}methyl)-4-oxo-1,4-dihydroquinolin-7-yl]piperidine-4-carboxylic Acid]",+++ (ΔTm≥20° C.)
10,"Cc1ccc(N2CCC[C@H](N(Cc3ccnc(C)c3)Cc3cn(C4CC4)c4cc(N5CCC6NCCC6C5)c(F)cc4c3=O)C2)cn1 (stereo partly drawn) [Example 68, 1-cyclopropyl-6-fluoro-3-({[(3S)-1-(6-methylpyridin-3-yl)piperidin-3-yl][(2-methylpyridin-4-yl)methyl]amino}methyl)-7-{octahydro-1H-pyrrolo[3,2-c]pyridin-5-yl}-1,4-dihydroquinolin-4-one]",+++ (ΔTm≥20° C.)
11,"Cc1ccc(N2C[C@@H](F)C[C@H](N(Cc3ccnc(C)c3)Cc3cn(C4CC4)c4cc(OCCO)c(F)cc4c3=O)C2)cn1 [Example 75, 1-cyclopropyl-6-fluoro-3-({[(3S,5S)-5-fluoro-1-(6-methylpyridin-3-yl)piperidin-3-yl][(2-methylpyridin-4-yl)methyl]amino}methyl)-7-(2-hydroxyethoxy)-1,4-dihydroquinolin-4-one]",+++ (ΔTm≥20° C.)
12,"Cc1cc(CN(Cc2cn(C3CC3)c3cc(N4CCC[C@H](O)C4)c(F)cc3c2=O)[C@H]2CCCN(c3cccnc3)C2)ccn1.Cl [Example 86, 1-cyclopropyl-6-fluoro-7-[(3S)-3-hydroxypiperidin-1-yl]-3-({[(2-methylpyridin-4-yl)methyl][(3S)-1-(pyridin-3-yl)piperidin-3-yl]amino}methyl)-1,4-dihydroquinolin-4-one Hydrochloride]",+++ (ΔTm≥20° C.)

# More lines, now with the values ahead:
row,hSTING FTS binding assay (ΔT ° C.),SMILES
1,+++ (ΔTm≥20° C.),"Cc1ccc(N2CCC[C@H](N(Cc3ccnc(C)c3)Cc3cn(C4CC4)c4cc(N5CCC[C@@H](O)C5)c(F)cc4c3=O)C2)cn1.Cl [Example 28, 1-cyclopropyl-6-fluoro-7-[(3R)-3-hydroxypiperidin-1-yl]-3-({[(3S)-1-(6-methylpyridin-3-yl)piperidin-3-yl][(2-methylpyridin-4-yl)methyl]amino}methyl)-1,4-dihydroquinolin-4-one Hydrochloride]"
2,+++ (ΔTm≥20° C.),"Cc1ccc(N2CCC[C@H](N(Cc3ccnc(C)c3)Cc3cn(C4CC4)c4cc(N5CCC(O)CC5)c(F)cc4c3=O)C2)cn1.Cl [Example 32, 1-cyclopropyl-6-fluoro-7-(4-hydroxypiperidin-1-yl)-3-({[(3S)-1-(6-methylpyridin-3-yl)piperidin-3-yl][(2-methylpyridin-4-yl)methyl]amino}methyl)-1,4-dihydroquinolin-4-one Hydrochloride]"
3,+++ (ΔTm≥20° C.),"Cc1cc(CN(Cc2cn(C3COC3)c3ccccc3c2=O)[C@H]2CCCN(c3ccc(N)nc3)C2)ccn1 [Example 35, 3-({[(3S)-1-(6-aminopyridin-3-yl)piperidin-3-yl][(2-methylpyridin-4-yl)methyl]amino}methyl)-1-(oxetan-3-yl)-1,4-dihydroquinolin-4-one]"
4,+ (ΔTm≤10° C.),"Cc1cc(CN(Cc2cn(C(C)C)c3cc(N4CC[C@@H](O)C4)ccc3c2=O)[C@H]2CCCN(c3ccnnc3)C2)ccn1 [Example 49, 7-[(3R)-3-hydroxypyrrolidin-1-yl]-3-({[(2-methylpyridin-4-yl)methyl][(3S)-1-(pyridazin-4-yl)piperidin-3-yl]amino}methyl)-1-(propan-2-yl)-1,4-dihydroquinolin-4-one]"
5,+++ (ΔTm≥20° C.),"CN[C@@H]1CCN(c2cc3c(cc2F)c(=O)c(CN(Cc2ccnc(C)c2)[C@H]2CCCN(c4ccc(C)nc4)C2)cn3C2CC2)C1.Cl [Example 55, 1-Cyclopropyl-6-fluoro-7-[(3R)-3-(methylamino)pyrrolidin-1-yl]-3-({[(3S)-1-(6-methylpyridin-3-yl)piperidin-3-yl][(2-methylpyridin-4-yl)methyl]amino}methyl)-1,4-dihydroquinolin-4-one Hydrochloride]"
6,+++ (ΔTm≥20° C.),"Cc1ccc(N2CCC[C@H](N(Cc3ccnc(C)c3)Cc3cn(C4CC4)c4cc(N5CCCC(C(=O)O)C5)c(F)cc4c3=O)C2)cn1 (stereo partly drawn) [Example 66, 1-[1-cyclopropyl-6-fluoro-3-({[(3S)-1-(6-methylpyridin-3-yl)piperidin-3-yl][(2-methylpyridin-4-yl)methyl]amino}methyl)-4-oxo-1,4-dihydroquinolin-7-yl]piperidine-3-carboxylic Acid]"
7,+++ (ΔTm≥20° C.),"Cc1cc(CN(Cc2cn(C3CC3)c3cc(N4CC[C@@H](O)C4)c(F)cc3c2=O)[C@H]2CCCN(c3cccnc3)C2)ccn1 [Example 78, 1-cyclopropyl-6-fluoro-7-[(3R)-3-hydroxypyrrolidin-1-yl]-3-({[(2-methylpyridin-4-yl)methyl][(3S)-1-(pyridin-3-yl)piperidin-3-yl]amino}methyl)-1,4-dihydroquinolin-4-one]"
8,++ (10<ΔTm<20° C.),"Cc1cnc(N2C[C@@H](F)C[C@H](N(Cc3ccnc(C)c3)Cc3cn(C4CC4)c4cc(N5CCC[C@H](O)C5)c(F)cc4c3=O)C2)cn1 [Example 82, 1-cyclopropyl-6-fluoro-3-({[(3S,5S)-5-fluoro-1-(5-methylpyrazin-2-yl)piperidin-3-yl][(2-methylpyridin-4-yl)methyl]amino}methyl)-7-[(3S)-3-hydroxypiperidin-1-yl]-1,4-dihydroquinolin-4-one]"
